Laboratory results as given in ChEMBL document CHEMBL1201862, “PubChem BioAssay data set” (2004).
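In this assay, cells in 96-well plates receive the compound at five concentrations for 48 hours. Endpoints are linearly interpolated between the surrounding concentrations. Abbreviation: GI50, concentration required for 50% inhibition of growth.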 Calls of active or inactive are those of the source. Rule as the data show it: active = GI50 up to about 1.1 µM and inactive = higher.

Assays:
Assay in all cases: NCI tumour cell line growth inhibition, 48 h
MCF7 = test system: MCF7
NCI-H522 = test system: NCI-H522
HL-60 = test system: HL-60
NCI-H226 = test system: NCI-H226
SF-268 = test system: SF-268
NCI/ADR-RES = test system: NCI/ADR-RES
HCT-15 = test system: HCT-15
U-251 = test system: U-251
SN12C = test system: SN12C
MDA-N = test system: MDA-N
OVCAR-8 = test system: OVCAR-8
LOX IMVI = test system: LOX IMVI
Hs-578T = test system: Hs-578T
BT-549 = test system: BT-549
IGROV-1 = test system: IGROV-1
786-0 = test system: 786-0
NCI-H460 = test system: NCI-H460
CCRF-CEM = test system: CCRF-CEM
SK-MEL-28 = test system: SK-MEL-28
MDA-MB-231 = test system: MDA-MB-231
HCT-116 = test system: HCT-116
K562 = test system: K562
MOLT-4 = test system: MOLT-4
NCI-H23 = test system: NCI-H23
COLO 205 = test system: COLO 205
SK-MEL-2 = test system: SK-MEL-2
PC-3 = test system: PC-3
SK-MEL-5 = test system: SK-MEL-5
UACC-257 = test system: UACC-257
HCC 2998 = test system: HCC 2998
A498 = test system: A498
SW-620 = test system: SW-620
Malme-3M = test system: Malme-3M
HOP-92 = test system: HOP-92
UACC-62 = test system: UACC-62
TK-10 = test system: TK-10
SF-539 = test system: SF-539
SR = test system: SR
ACHN = test system: ACHN
RPMI-8226 = test system: RPMI-8226
SNB-75 = test system: SNB-75
OVCAR-3 = test system: OVCAR-3
DU-145 = test system: DU-145
SNB-19 = test system: SNB-19
HT-29 = test system: HT-29
MDA-MB-435 = test system: MDA-MB-435
EKVX = test system: EKVX
UO-31 = test system: UO-31
KM12 = test system: KM12
SK-OV-3 = test system: SK-OV-3
M14 = test system: M14
A549 = test system: A549
SF-295 = test system: SF-295
OVCAR-4 = test system: OVCAR-4
HOP-62 = test system: HOP-62
OVCAR-5 = test system: OVCAR-5
T47D = test system: T47D
CAKI-1 = test system: CAKI-1

## Nc1c2c(nc3ccccc13)CCCCCC2
MCF7
  GI50: 26.9 µM (inactive)
NCI-H522
  GI50: 19.6 µM (inactive)
HL-60
  GI50: 7.26 µM (inactive)
NCI-H226
  GI50: 43.3 µM (inactive)
SF-268
  GI50: 39.3 µM (inactive)
NCI/ADR-RES
  GI50: 37.5 µM (inactive)
HCT-15
  GI50: 30.3 µM
U-251
  GI50: 26.8 µM (inactive)
SN12C
  GI50: 40.7 µM (inactive)
MDA-N
  GI50: 16.5 µM (inactive)
OVCAR-8
  GI50: 30.4 µM (inactive)
LOX IMVI
  GI50: 16 µM (inactive)
Hs-578T
  GI50: 38.5 µM (inactive)
BT-549
  GI50: 84.5 µM (inactive)
IGROV-1
  GI50: 22.4 µM (inactive)
786-0
  GI50: 16.4 µM (inactive)
NCI-H460
  GI50: 16.6 µM (inactive)
CCRF-CEM
  GI50: 15.6 µM (inactive)
SK-MEL-28
  GI50: 13.8 µM (inactive)
MDA-MB-231
  GI50: 18.5 µM (inactive)
HCT-116
  GI50: 20.8 µM (inactive)
K562
  GI50: 21.5 µM (inactive)
MOLT-4
  GI50: 27.2 µM (inactive)
NCI-H23
  GI50: 42.1 µM (inactive)
COLO 205
  GI50: 14.2 µM (inactive)
SK-MEL-2
  GI50: 13.7 µM (inactive)
PC-3
  GI50: 20.8 µM (inactive)
SK-MEL-5
  GI50: 17.5 µM (inactive)
UACC-257
  GI50: 15.4 µM (inactive)
HCC 2998
  GI50: 14.4 µM (inactive)
A498
  GI50: 20.7 µM (inactive)
SW-620
  GI50: 17.1 µM (inactive)
Malme-3M
  GI50: 18 µM (inactive)
HOP-92
  GI50: 13.6 µM (inactive)
UACC-62
  GI50: 16.6 µM (inactive)
TK-10
  GI50: 15.2 µM (inactive)
SF-539
  GI50: 16.1 µM (inactive)
SR
  GI50: 15.7 µM (inactive)
ACHN
  GI50: 27.1 µM (inactive)
RPMI-8226
  GI50: 19.1 µM (inactive)

## O=C1Nc2ccccc2/C1=N/Nc1ncccc1[N+](=O)[O-]
SNB-75
  GI50: 1.39 µM (inactive)
MCF7
  GI50: 3.19 µM (inactive)
OVCAR-3
  GI50: 6.25 µM (inactive)
NCI-H522
  GI50: 9.71 µM (inactive)
NCI-H226
  GI50: 13.6 µM (inactive)
DU-145
  GI50: 14.6 µM (inactive)
SF-268
  GI50: 11.9 µM (inactive)
SNB-19
  GI50: 19.9 µM (inactive)
NCI/ADR-RES
  GI50: 9.25 µM (inactive)
HCT-15
  GI50: 4.72 µM
U-251
  GI50: 7.18 µM (inactive)
HT-29
  GI50: 6.12 µM (inactive)
SN12C
  GI50: 17.3 µM (inactive)
MDA-N
  GI50: 27.1 µM (inactive)
MDA-MB-435
  GI50: 16.8 µM (inactive)
OVCAR-8
  GI50: 17.6 µM (inactive)
LOX IMVI
  GI50: 7.55 µM (inactive)
EKVX
  GI50: 5.08 µM (inactive)
Hs-578T
  GI50: 31.6 µM (inactive)
BT-549
  GI50: 11.5 µM (inactive)
IGROV-1
  GI50: 2.09 µM (inactive)
UO-31
  GI50: 11.6 µM (inactive)
786-0
  GI50: 4.84 µM (inactive)
NCI-H460
  GI50: 16.7 µM (inactive)
KM12
  GI50: 3.42 µM (inactive)
SK-MEL-28
  GI50: 22.6 µM (inactive)
MDA-MB-231
  GI50: 86.9 µM (inactive)
SK-OV-3
  GI50: 12.1 µM (inactive)
HCT-116
  GI50: 4.92 µM (inactive)
K562
  GI50: 3.95 µM (inactive)
M14
  GI50: 16.3 µM (inactive)
A549
  GI50: 18 µM (inactive)
MOLT-4
  GI50: 48.1 µM (inactive)
SK-MEL-2
  GI50: 20.9 µM (inactive)
PC-3
  GI50: 12.4 µM (inactive)
SF-295
  GI50: 17.2 µM (inactive)
UACC-257
  GI50: 23 µM (inactive)
A498
  GI50: 71.3 µM (inactive)
SW-620
  GI50: 8.13 µM (inactive)
OVCAR-4
  GI50: 19.2 µM (inactive)
Malme-3M
  GI50: 17.3 µM (inactive)
HOP-62
  GI50: 12.9 µM (inactive)
HOP-92
  GI50: 62.2 µM (inactive)
UACC-62
  GI50: 10.6 µM (inactive)
TK-10
  GI50: 14.1 µM (inactive)
OVCAR-5
  GI50: 12.6 µM (inactive)
SF-539
  GI50: 2.37 µM (inactive)
ACHN
  GI50: 4.69 µM (inactive)
RPMI-8226
  GI50: 3.15 µM (inactive)

## CC1=CC(=O)/C(=C/NC(=S)c2ccccc2)C(=O)O1
SNB-75
  GI50: > 100 µM (inactive)
MCF7
  GI50: > 100 µM (inactive)
OVCAR-3
  GI50: > 100 µM (inactive)
NCI-H226
  GI50: > 100 µM (inactive)
DU-145
  GI50: > 100 µM (inactive)
SNB-19
  GI50: > 100 µM (inactive)
NCI/ADR-RES
  GI50: > 100 µM (inactive)
HCT-15
  GI50: > 100 µM
U-251
  GI50: > 100 µM (inactive)
HT-29
  GI50: > 100 µM (inactive)
SN12C
  GI50: > 100 µM (inactive)
MDA-N
  GI50: > 100 µM (inactive)
MDA-MB-435
  GI50: > 100 µM (inactive)
OVCAR-8
  GI50: > 100 µM (inactive)
LOX IMVI
  GI50: > 100 µM (inactive)
EKVX
  GI50: > 100 µM (inactive)
BT-549
  GI50: > 100 µM (inactive)
IGROV-1
  GI50: > 100 µM (inactive)
UO-31
  GI50: > 100 µM (inactive)
786-0
  GI50: > 100 µM (inactive)
NCI-H460
  GI50: > 100 µM (inactive)
KM12
  GI50: > 100 µM (inactive)
SK-MEL-28
  GI50: > 100 µM (inactive)
T47D
  GI50: > 100 µM (inactive)
MDA-MB-231
  GI50: > 100 µM (inactive)
SK-OV-3
  GI50: > 100 µM (inactive)
HCT-116
  GI50: > 100 µM (inactive)
M14
  GI50: > 100 µM (inactive)
A549
  GI50: > 100 µM (inactive)
MOLT-4
  GI50: > 100 µM (inactive)
NCI-H23
  GI50: > 100 µM (inactive)
COLO 205
  GI50: > 100 µM (inactive)
SK-MEL-2
  GI50: > 100 µM (inactive)
PC-3
  GI50: > 100 µM (inactive)
SF-295
  GI50: > 100 µM (inactive)
SK-MEL-5
  GI50: > 100 µM (inactive)
UACC-257
  GI50: > 100 µM (inactive)
HCC 2998
  GI50: > 100 µM (inactive)
CAKI-1
  GI50: > 100 µM (inactive)
SW-620
  GI50: > 100 µM (inactive)
OVCAR-4
  GI50: > 100 µM (inactive)
HOP-62
  GI50: > 100 µM (inactive)
HOP-92
  GI50: > 100 µM (inactive)
UACC-62
  GI50: > 100 µM (inactive)
TK-10
  GI50: > 100 µM (inactive)
OVCAR-5
  GI50: > 100 µM (inactive)
SF-539
  GI50: > 100 µM (inactive)
ACHN
  GI50: > 100 µM (inactive)
